PubChem BioAssay (NCI)
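All cell lines were grown in 96-well plates and treated with compound for 48 hours. GI50: concentration for 50% inhibition of growth. TGI marks complete inhibition of growth.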

Tests used:
Assay in all cases: DTP human tumour cell line panel, 48 h
[1] = tested on: A549 NSCLC
[2] = tested on: HCC-2998 colon
[3] = tested on: OVCAR-8 ovarian
[4] = tested on: RXF 393 renal
[5] = tested on: SK-MEL-28 melanoma
[6] = tested on: SW-620 colon
[7] = tested on: BT-549 breast
[8] = tested on: DU-145 prostate
[9] = tested on: MDA-MB-435
[10] = tested on: NCI/ADR-RES ovarian

| SMILES | TGI [1] | TGI [2] | TGI [3] | TGI [4] | TGI [5] | TGI [6] | TGI [7] | TGI [8] | TGI [9] | TGI [10] | GI50 [1] | GI50 [7] | GI50 [8] | GI50 [2] | GI50 [9] | GI50 [3] | GI50 [4] | GI50 [5] | GI50 [6] |
| --- | --- | --- | --- | --- | --- | --- | --- | --- | --- | --- | --- | --- | --- | --- | --- | --- | --- | --- | --- |
| Clc1ccc2c(c1)[nH]c1c2nc2sccn21 | > 100 µM | > 100 µM | > 100 µM | > 100 µM | > 100 µM | > 100 µM | – | – | – | – | – | – | – | – | – | – | – | – | – |
| O=C(CSc1nc(-c2ccccc2)c(-c2ccccc2)[nH]1)NNC(=S)Nc1ccccc1 | > 100 µM | > 100 µM | > 100 µM | – | > 100 µM | > 100 µM | – | – | – | – | – | – | – | – | – | – | – | – | – |
| N#Cc1c(C[n+]2ccccc2)c2ccccc2oc1=O | > 100 µM | > 100 µM | > 100 µM | – | > 100 µM | > 100 µM | – | – | – | – | – | – | – | – | – | – | – | – | – |
| CN1C(=O)C2C=CC1C1CCC2N(C)C1=O (configuration not stated) | > 100 µM | > 100 µM | > 100 µM | > 100 µM | > 100 µM | > 100 µM | – | – | – | – | – | – | – | – | – | – | – | – | – |
| CCOC(=O)Cc1csc(N=Nc2c(O)[nH]c3ccccc23)n1 | > 100 µM | > 100 µM | > 100 µM | > 100 µM | – | > 100 µM | > 100 µM | > 100 µM | > 100 µM | > 100 µM | – | – | – | – | – | – | – | – | – |
| CN(C)CCCc1c2ccccc2nc2ccc(Cl)cc12 | 28.3 µM | – | 32.6 µM | 28.8 µM | 37.3 µM | 98.4 µM | 38.2 µM | 58.7 µM | 26.6 µM | 52 µM | – | – | – | – | – | – | – | – | – |
| COc1ccc(N2C(=O)C3c4[nH]c5ccccc5c4C4CCCCCCC4C3C2=O)cc1 (configuration not stated) | 22.8 µM | > 100 µM | 13 µM | – | 42 µM | 34.1 µM | – | – | – | – | – | – | – | – | – | – | – | – | – |
| O=C(O)Cc1ccccc1CCc1ccccc1Cl | > 100 µM | > 100 µM | > 100 µM | > 100 µM | > 100 µM | > 100 µM | – | – | – | – | – | – | – | – | – | – | – | – | – |
| O=C(N/N=C/c1ccc(Cl)cc1)c1[nH]c2ccc(Cl)cc2c1-c1ccccc1 | 29.3 µM | 15.5 µM | 32.6 µM | 1.51 µM | > 68.1 µM | > 100 µM | 3.58 µM | 0.367 µM | 0.72 µM | – | 348 nM | 146 nM | 104 nM | 326 nM | 245 nM | 132 nM | 123 nM | 2770 nM | 159 nM |
| CCOC(=O)C1=C(Nc2ccc(Cl)c(Cl)c2)OC/C1=N\NC(=O)Cc1ccccc1 | > 100 µM | > 100 µM | > 100 µM | > 100 µM | > 100 µM | > 100 µM | – | – | – | – | – | – | – | – | – | – | – | – | – |
| Clc1ccc(-c2c(C3=NCCN3)nnn2-c2ccccc2)cc1 | > 100 µM | > 100 µM | > 100 µM | > 100 µM | > 100 µM | > 100 µM | – | – | – | – | – | – | – | – | – | – | – | – | – |
| COc1cc(/C=C/c2ccc(OC)c(OC)c2OC)cc(OC)c1OC | > 88.9 µM | 18.6 µM | > 87.1 µM | 46.3 µM | 37.7 µM | > 92.6 µM | – | – | – | – | – | – | – | – | – | – | – | – | – |
| O=c1cc(-c2ccccn2)[nH]c2cc(F)ccc12 | > 100 µM | > 100 µM | > 100 µM | > 100 µM | > 100 µM | > 100 µM | – | – | – | – | – | – | – | – | – | – | – | – | – |
| CCCCCCCCCCCCCCCCCCNC(=O)OCC(CNS(=O)(=O)CCC[n+]1cccc2ccccc21)COC (configuration not stated) | 25.9 µM | – | > 26.1 µM | 55.8 µM | > 35.1 µM | 11.8 µM | 5.41 µM | 34.3 µM | 4.94 µM | 34.2 µM | – | – | – | – | – | – | – | – | – |
